Numbered stars: 1 amine (or outer) side, 2 acyl side, 3 side chain; on linkers, the order of the positions; unused ones are H or OH. Ends that are not written are not given here. Peptide text beside a SMILES is read from it. Cysteamide = C(CS[*:3])N[*:1]
How the values were obtained:
[1] = tested on: S. aureus DSM 11729 (MRSA); experiment: microbe, parasite or virus in culture; type: cell-based, Staphylococcus aureus; settings: DSM 11729, 24 h; for MIC pH5.5, 320 mM NaCl, S. aureus 11729 / MIC pH5.5, S. aureus 11729: pH 5.5
Procedure: (§1) The bacterial inoculum was established by the dilution method from actively-growing cultures in Mueller-Hinton broth, standardized with 0.5 McFarland turbidity standard as described in the CLSI method M26-A.
(§2) To determine the prevention of biofilm formation, both the bacterial inoculum and the antimicrobial agents were added simultaneously to the plates. The plates were incubated at 37° C. for 24 h and the optical density was read at 625 nm on a microtitre plate reader (BioTek Powerwave XS, Winooski, USA). The MIC was obtained as the lowest concentration of antimicrobial showing total inhibition of bacterial growth. […]
(§3) FIC=MICA[combination]/MICA[alone]+MICB[combination]/MICB[alone] […]
(§4) In order to assess for the prevention of biofilm formation by both Gram-positive and Gram-negative bacteria, the bacterial inoculum and antimicrobial agents were added simultaneously in the plates. The range of concentrations of antimicrobial agents was 0-500 μg/ml NP108 and 0-320 μg/ml cysteamine against the Gram-negative bacteria P. aeruginosa ATCC BAA-47 and 0-1000 μg/ml NP108 and 0-320 μg/ml cysteamine against the Gram-positive MRSA.

[2] = tested on: P. aeruginosa DSMZ1128; settings: DSMZ1128, pH 7
[3] = tested on: S. epidermidis ATCC12228; settings: ATCC12228, pH 7
[4] = tested on: S. aureus ATCC25923; type: cell-based, Staphylococcus aureus; settings: ATCC25923, 24 h
Procedure: as §1
(§5) To determine the prevention of biofilm formation, both the bacterial inoculum and the antimicrobial agents were added simultaneously to the plates. The plates were incubated at 37° C. for 24 h and the optical density was read at 625 nm on a microtitre plate reader (BioTek Powerwave XS, Winooski, USA). The MIC was obtained as the lowest concentration of antimicrobial showing total inhibition of bacterial growth.

[5] = tested on: P. aeruginosa DSMZ1299; settings: DSMZ1299, pH 7
[6] = tested on: P. aeruginosa ATCC BAA-47; experiment: microbe, parasite or virus in culture; type: cell-based, Pseudomonas aeruginosa; settings: ATCC BAA-47, 24 h; for MIC pH5.5, 320 mM NaCl, P. aeruginosa ATCCBAA-47 / MIC pH5.5, P. aeruginosa ATCCBAA-47: pH 5.5
Procedure: as §1, §2, §3, §4

[7] = tested on: P. aeruginosa DSMZ1128; type: cell-based, Pseudomonas aeruginosa; settings: DSMZ1128, 24 h
Procedure: as §1, §5

[8] = tested on: P. aeruginosa DSMZ1299; type: cell-based, Pseudomonas aeruginosa; settings: for MIC at pH 7, P. aeruginosa D5MZ1299: DSMZ1299, 24 h
Procedure: as §1, §5

[9] = tested on: S. aureus ATCC25923; settings: ATCC25923, pH 7
[10] = tested on: S. epidermidis ATCC12228; type: cell-based, Staphylococcus epidermidis; settings: ATCC12228, 24 h
Procedure: as §1, §5

[11] = tested on: P. aeruginosa ATCC BAA-47; settings: for MBC at pH5.5, P. aeruginosa ATCCBAA-47 / MBC pH5.5, 320 mM NaCl, P. aeruginosa ATCCBAA-47: ATCC BAA-47, pH 5.5; for MBC following MIC at pH 7, P. aeruginosa ATCCBAA-47: ATCC BAA-47, pH 7
[12] = tested on: S. aureus DSM 11729 (MRSA); settings: for MBC at pH5.5, S. aureus 11729 / MBC pH5.5, 320 mM NaCl, S. aureus 11729: DSM 11729, pH 5.5; for MBC following MIC at pH 7, S. aureus DSMZ11729: DSM 11729, pH 7

RRRFRFFFRFRRR [NP432, RRRFRFFFRFRRR]
MIC pH5.5, 320 mM NaCl, S. aureus 11729 [1]: >500 μg/ml
MIC pH5.5, S. aureus 11729 [1]: >500 μg/ml
MIC at pH 7, S. aureus DSMZ11729 [1]: 62.5 μg/ml
MBC following MIC at pH 7, P. aeruginosa DSMZ1128 [2]: 250 (2) μg/ml
MBC following MIC at pH 7, S. epidermidis ATCC12228 [3]: 16 μg/ml
MIC at pH 7, S. aureus ATCC25923 [4]: 31.25 μg/ml
MBC following MIC at pH 7, P. aeruginosa DSMZ1299 [5]: 32 (2) μg/ml
MIC pH5.5, 320 mM NaCl, P. aeruginosa ATCCBAA-47 [6]: 125 μg/ml
MIC pH5.5, P. aeruginosa ATCCBAA-47 [6]: 125 μg/ml
MIC at pH 7, P. aeruginosa ATCCBAA-47 [6]: 15.6 μg/ml
MIC at pH 7, P. aeruginosa DSMZ1128 [7]: 62.5 μg/ml
MIC at pH 7, P. aeruginosa D5MZ1299 [8]: 15.6 μg/ml
MBC following MIC at pH 7, S. aureus ATCC25923 [9]: 250 μg/ml
MIC at pH 7, S. epidermidis ATCC12228 [10]: <7.8 μg/ml
MBC at pH5.5, P. aeruginosa ATCCBAA-47 [11]: 125 μg/ml
MBC pH5.5, 320 mM NaCl, P. aeruginosa ATCCBAA-47 [11]: >500 μg/ml
MBC following MIC at pH 7, P. aeruginosa ATCCBAA-47 [11]: 250 μg/ml
MBC at pH5.5, S. aureus 11729 [12]: >500 μg/ml
MBC pH5.5, 320 mM NaCl, S. aureus 11729 [12]: >500 μg/ml
MBC following MIC at pH 7, S. aureus DSMZ11729 [12]: 500 μg/ml

N=C(N)NCCC[C@H](NC(=O)[C@H](CCCNC(=N)N)NC(=O)[C@H](CCCNC(=N)N)NC(=O)[C@H](CCCNC(=N)N)NC(=O)[C@@H](N)CCCNC(=N)N)C(=O)NCCS [NP457, RRRRR-cysteamine] (H-RRRRR-Cysteamide; N-terminus assumed)
MIC pH5.5, 320 mM NaCl, S. aureus 11729 [1]: >500 μg/ml
MIC pH5.5, S. aureus 11729 [1]: >500 μg/ml
MIC at pH 7, S. aureus DSMZ11729 [1]: 125 μg/ml
MBC following MIC at pH 7, P. aeruginosa DSMZ1128 [2]: >500 μg/ml
MBC following MIC at pH 7, S. epidermidis ATCC12228 [3]: 125 (2) μg/ml
MIC at pH 7, S. aureus ATCC25923 [4]: 125 μg/ml
MBC following MIC at pH 7, P. aeruginosa DSMZ1299 [5]: >500 μg/ml
MIC pH5.5, 320 mM NaCl, P. aeruginosa ATCCBAA-47 [6]: >500 μg/ml
MIC pH5.5, P. aeruginosa ATCCBAA-47 [6]: >500 μg/ml
MIC at pH 7, P. aeruginosa ATCCBAA-47 [6]: 250 μg/ml
MIC at pH 7, P. aeruginosa DSMZ1128 [7]: >500 μg/ml
MIC at pH 7, P. aeruginosa D5MZ1299 [8]: >500 μg/ml
Exp#3, P. aeruginosa DSMZ1299 (quantity not clearly headed) ([8]; Exp#3): >500 µg/mL
MBC following MIC at pH 7, S. aureus ATCC25923 [9]: 62.5 μg/ml
MIC at pH 7, S. epidermidis ATCC12228 [10]: 31.25 μg/ml
MBC at pH5.5, P. aeruginosa ATCCBAA-47 [11]: >500 μg/ml
MBC pH5.5, 320 mM NaCl, P. aeruginosa ATCCBAA-47 [11]: >500 μg/ml
MBC following MIC at pH 7, P. aeruginosa ATCCBAA-47 [11]: >500 μg/ml
MBC at pH5.5, S. aureus 11729 [12]: >500 μg/ml
MBC pH5.5, 320 mM NaCl, S. aureus 11729 [12]: >500 μg/ml
MBC following MIC at pH 7, S. aureus DSMZ11729 [12]: 125 (2) μg/ml

N=C(N)NCCC[C@H](NC(=O)[C@H](CCCNC(=N)N)NC(=O)[C@H](CCCNC(=N)N)NC(=O)[C@H](CCCNC(=N)N)NC(=O)[C@@H](N)CCCNC(=N)N)C(=O)N[C@@H](Cc1c[nH]cn1)C(=O)N[C@@H](Cc1c[nH]cn1)C(=O)NCCS [NP458, RRRRRHH-cysteamine] (H-RRRRRHH-Cysteamide; N-terminus assumed)
MIC pH5.5, 320 mM NaCl, S. aureus 11729 [1]: >500 μg/ml
MIC pH5.5, S. aureus 11729 [1]: >500 μg/ml
MIC at pH 7, S. aureus DSMZ11729 [1]: 250 μg/ml
MBC following MIC at pH 7, P. aeruginosa DSMZ1128 [2]: >500 μg/ml
MBC following MIC at pH 7, S. epidermidis ATCC12228 [3]: 500 μg/ml
MIC at pH 7, S. aureus ATCC25923 [4]: 250 μg/ml
MBC following MIC at pH 7, P. aeruginosa DSMZ1299 [5]: >500 μg/ml
MIC pH5.5, 320 mM NaCl, P. aeruginosa ATCCBAA-47 [6]: >500 μg/ml
MIC pH5.5, P. aeruginosa ATCCBAA-47 [6]: >500 μg/ml
MIC at pH 7, P. aeruginosa ATCCBAA-47 [6]: 62.5 μg/ml
MIC at pH 7, P. aeruginosa DSMZ1128 [7]: 250 μg/ml
MIC at pH 7, P. aeruginosa D5MZ1299 [8]: 125 μg/ml
MBC following MIC at pH 7, S. aureus ATCC25923 [9]: 125 μg/ml
MIC at pH 7, S. epidermidis ATCC12228 [10]: 31.25 μg/ml
MBC at pH5.5, P. aeruginosa ATCCBAA-47 [11]: >500 μg/ml
MBC pH5.5, 320 mM NaCl, P. aeruginosa ATCCBAA-47 [11]: >500 μg/ml
MBC following MIC at pH 7, P. aeruginosa ATCCBAA-47 [11]: >500 μg/ml
MBC at pH5.5, S. aureus 11729 [12]: >500 μg/ml
MBC pH5.5, 320 mM NaCl, S. aureus 11729 [12]: >500 μg/ml
MBC following MIC at pH 7, S. aureus DSMZ11729 [12]: 250 μg/ml

Source: US20190175528A1, “INHIBITION OF BIOFILM ORGANISMS” (NovaBiotics Limited, priority 2009, published 2019)
